Measurements as given in patent US20090186915A1, “Compositions and methods for treatment of glioblastoma, gliosarcoma, NSCLC, and head and neck cancer” (Unibioscreen S. A., priority 2006, published 2009).

Key:
DU-145 = test: Senescence-associated β-galactosidase staining, DU-145; format: cell-based, human; conditions: 10 μM, 72 hours
Description: Features typical of senescence have been induced by the compound of example 2 in human DU-145 prostate cancer cells. A senescent cell is known to typically show morphological changes, such as a flattened cytoplasm and increased granularity. The induction of senescence-associated β-galactosidase activity is a specific event occurring in cells undergoing senescence, a feature that was observed once more in the current study (according to the protocol found in Dimri et al., A biomarker that identifies senescent human cells in culture and in aging skin in vivo, Proc Natl Acad Sci USA. (1995) 92(20):9363-7), as evidenced in FIG. 4. Moderate doses (nM range) of doxorubicin (ADR) are known to induce senescence in wild-type human cancer cells. We therefore used doxorubicin as a positive control in our experiment.
After the indicated treatments, cells were washed in PBS, fixed for 3 to 5 minutes (at room temperature) in 2% formaldehyde/0.2% glutaraldehyde, washed and incubated at 37° C. […] 1995; 92:9363-9367.], after fixing and staining with X-Gal, the number of cells positive for the SA-β-Gal activity (intense blue staining) was then counted independently by two different individuals (on 400 cells/plate). […]
Human PC-3 and DU-145 prostate cancer cells cultured in 0 or 10 μM UNBS5162 or 20 nM Adriamycin for 72 hours were evaluated by SA-β-Gal staining. […]

GM-CFC = test: HALO hematotoxicity assay, mouse GM-CFC; format: cell-based; conditions: 5 days culture, iATP
Protocol: Investigation of the hematotoxic potential of UNBS5162 was undertaken by HemoGenix (Colorado Springs, Colo.). The effects of UNBS5162 on stem and progenitor cell populations from murine and human bone marrow were assessed using HALO (Hematopoietic/Hematotoxicity Assay through Luminescence Output) technology. Stem and hematopoietic progenitor cell populations were isolated from mouse and human bone marrow samples, plated at a concentration of 1.0×10^4 cells/well and cultured for 5 and 7 days, respectively, in the presence of growth factors and increasing concentrations of UNBS5162 ranging from 0.5 nM to 50 μM. The proliferative or growth potential of cell populations was determined from intracellular ATP (iATP) concentrations and a luciferin/luciferase bioluminescence signal detection system. All samples were assayed in eight replicates. The results are presented as estimated inhibitory concentration (IC) values.

Rb, pRb = test: Western blot of Rb and p-Rb, DU-145; format: cell-based, human; conditions: 10 μM
[1] = tested on: ets homologous factor (EHF); test: EHF mRNA by quantitative RT-PCR, DU-145; format: cell-based, human
Protocol: Reverse transcription reactions were carried out in a thermal cycler (Thermocycler; Westburg, Leusden, The Netherlands). The purification of the cDNAs produced was undertaken using the High Pure PCR Product Purification Kit (Roche Diagnostics, Mannheim, Germany) in accordance with the manufacturer's instructions. Quantitative PCR reactions were performed with 50 ng of purified cDNA in a LightCycler thermocycler instrument (Roche Diagnostics) using LCFastart DNA Master SYBR Green 1 (Roche Diagnostics). After amplification, data analysis was carried out by means of the “Fit points” algorithm of the LightCycler quantification software. A standard curve enabled cDNA quantification of samples to be effected. The primers used were provided by Invitrogen and selected using the HYBSIMULATOR software (Advanced Gene Computing Technology, Irvine, Calif.). The primers used were as follows: ets homologous factor (EHF): forward: 5′-[…]-3′; reverse: 5′-CGAACTCTTGGAAAGGGA-3′; E2F1: forward: 5′-[…]-3′; reverse: 5′-GGATGTGGTTCTTGGACTT-3′.

[2] = Body weight of MXT-HI tumor-bearing mice; format: in vivo, female B6D2F1 mice; conditions: for Mean body weight: UNBS5162 i.v. (5i × 3w) 10 mg/kg, alone or with 10 gray
MXT-HI mammary tumor = test: Syngeneic MXT-HI mammary tumor s.c., with or without irradiation; conditions: for Mean tumor size: UNBS5162 i.v. (5i × 3w) 10 mg/kg, alone or with 10 gray; for Number of mice dead or sacrificed: 11 mice per group
Protocol: The MXT-HI models used in our laboratory involve subcutaneously injecting MXT-HI tumor fragments into the flanks of B6D2F1 mice.
After the adaptation period, animals were inoculated subcutaneously with MXT-HI tumor. Briefly, “bank animals” were sacrificed and MXT-HI tumors were isolated from the animals, kept in saline solution and minced into 1 mm^3 pieces. These pieces (one/animal) were randomly s.c. inoculated into the right flanks of mice by means of a trocar.
UNBS5162 was dosed intravenously in accordance with UNBS procedure #002. The dosing volume was fixed at 200 μL/mouse. Group 1: Control (lactic acid vehicle) (5i/week×3 weeks) Group 2: UNBS5162 (10 mg/kg, 5i/week×3 weeks) Group 3: Irradiated (10 gray, 1 irradiation) Group 4: Irradiated (10 gray, 1 irradiation)+UNBS5162 (10 mg/kg, 5i/week×3 weeks) For group 4, the first administration of UNBS5162 was performed at the morning of the day of irradiation (5 Dec. 2007).
Briefly, animals were anaesthetized, using a syringe, with 150 μl of Rompun/Ketalar mixture (1 part Rompun/1 part Ketalar/4.5 parts saline) injected intraperitoneally. After approximately 5 minutes and after verification that animals were completely asleep, an irradiation simulation was performed first to focalise irradiation in the tumor centre and to avoid to irradiate healthy tissue. Simulation was performed individually on each animal to adapt irradiation to tumor size. In a second time, the tumor was irradiated with a dose of 10 gray (5 MV photons from a linear accelerator at a source skin distance of 1 m).
For technical reasons, irradiation was not performed the same day for all animals. Tumor irradiation was performed on day 14 post-graft for group 4 (irradiated+UNBS5162) and on day 16 post-graft for group 3 (irradiated alone).
Tumor growths were recorded 3 times weekly on Monday, Wednesday and Friday.
Statistical comparisons between the control group and the treated groups were performed with the non-parametric Mann-Whitney U-test. Survival analysis was done either by calculating the % T/C-value or with Kaplan-Meier analysis and Log-rank statistics. All statistical analyses were carried out using Statistica software (Statsoft, Tulsa, Okla.). The cut-off level for statistical significance was set at a p-value of p<0.05.
The T/C-values were calculated by dividing the day of death or sacrifice of the median mouse in a treated group T by the day of death or sacrifice of the median mouse in the control group C, the latter said to be 100%.

[3] = UNBS5162 10 mg/kg i.v. 5i×3w, alone or with 1×10 gray

SMILES: CN(C)CCN1C(=O)c2cccc3cc(NC(N)=O)cc(c23)C1=O [UNBS5162, N-{2-[2-(dimethylamino)ethyl]-1,3-dioxo-2,3-dihydro-1H-benzo[de]isoquinolin-5-yl}urea]
- senescence-associated β-galactosidase expression (DU-145): induced marked expression of SA-β-Gal
- senescence-associated β-galactosidase expression (DU-145; listed as example 2): induced a similar percentage of senescence-associated β-galactosidase positive staining as 20 nM doxorubicin
- IC50 (GM-CFC; 120 h): 7.04 µM
- IC90 (GM-CFC; 120 h): 12 µM
- IC75 (GM-CFC): 9.09 µM
- Rb protein expression (Rb, pRb): a decrease but not the complete disappearance of Rb protein and E2F1 expression
- EHF mRNA expression ([1]; 1 μM): markedly decreased EHF mRNA expression in a transient manner
- EHF mRNA levels ([1]; 10 μM, 72 hours after treatment): marked sustained decrease in EHF mRNA levels
- Mean body weight ([2]; Day 14): 22.13 g
- Mean body weight ([2]; Day 16): 23.39 g
- Mean body weight ([2]; Day 19): 25.72 g
- Mean body weight ([2]; Day 21): 24.35 g
- Mean body weight ([2]; Day 23): 25.46 g
- Mean body weight ([2]; Day 26): 28.52 g
- changes in body weights compared to control [2, 3]: No significant changes in body weights
- Mean tumor size (MXT-HI mammary tumor; Day 14): 178.52 mm^2
- Mean tumor size (MXT-HI mammary tumor; Day 16): 250.08 mm^2
- Mean tumor size (MXT-HI mammary tumor; Day 19): 414.11 mm^2
- Mean tumor size (MXT-HI mammary tumor; Day 21): 423.71 mm^2
- Mean tumor size (MXT-HI mammary tumor; Day 23): 481.56 mm^2
- Mean tumor size (MXT-HI mammary tumor; Day 26): 619.21 mm^2
- effect on tumor area (MXT-HI mammary tumor; [3]): no relevant effects
- survival of MXT-HI-bearing mice (MXT-HI mammary tumor; [3]): No prolongation of survival
- Number of mice dead or sacrificed (MXT-HI mammary tumor; day 19 post graft): 1
- Number of mice dead or sacrificed (MXT-HI mammary tumor; day 21 post graft): 2
- Number of mice dead or sacrificed (MXT-HI mammary tumor; day 23 post graft): 3
- Number of mice dead or sacrificed (MXT-HI mammary tumor; day 26 post graft): 4
- Number of mice dead or sacrificed (MXT-HI mammary tumor; day 28 post graft): 1
